Test results taken from the supplement of paper PMC10307832.

Assays:
Experiment in all cases: relative viability (nuclei count vs DMSO), 5 days (fraction); higher = more cells survive
[1] = compound: Cc1cc([C@@H](C)Nc2ccccc2C(=O)O)c2nc(N3CCOCC3)cc(=O)n2c1 [AZD6482] + CS(=O)(=O)N1CCN(Cc2cc3nc(-c4cccc5[nH]ncc45)nc(N4CCOCC4)c3s2)CC1 [Pictilisib] (partner 1 µM)
Method in brief: (§1)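 One day after seeding in 1536-well plates, lung cancer cell lines were dosed by pin tool. Dosing was either single-drug or a fixed anchor-drug dose plus five library-drug doses (not always all listed) in √10 steps. After 5 days, nuclei were stained in one fix-and-stain step and counted on 4× images, and relative viability is the nuclei count of treated wells over that of vehicle wells, given as the median of duplicate plates.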

[2] = compound: COc1cc2nc(N3CCCN(C)CC3)nc(NC3CCN(Cc4ccccc4)CC3)c2cc1OC + N=C(N)NC(=N)NCCc1ccccc1 [Phenformin] (partner 250 µM)
Method in brief: as §1

[3] = compound: Cc1cc([C@@H](C)Nc2ccccc2C(=O)O)c2nc(N3CCOCC3)cc(=O)n2c1 [AZD6482] + CC(=O)Nc1cccc(-n2c(=O)n(C3CC3)c(=O)c3c(Nc4ccc(I)cc4F)n(C)c(=O)c(C)c32)c1 [Trametinib] (partner 0.02 µM)
Method in brief: as §1

[4] = compound: Cc1cc([C@@H](C)Nc2ccccc2C(=O)O)c2nc(N3CCOCC3)cc(=O)n2c1 [AZD6482] + O=C(CCCCCCC(=O)Nc1ccccc1)NO [Vorinostat] (partner 1 µM)
Method in brief: as §1

Cell Line	relative viability ([1]; first compound 0.08 µM)	relative viability ([1]; first compound 0.253 µM)	relative viability ([1]; first compound 0.8 µM)	relative viability ([1]; first compound 2.53 µM)	relative viability ([1]; first compound 8 µM)	relative viability ([2]; first compound 0.2 µM)	relative viability ([2]; first compound 0.6325 µM)	relative viability ([2]; first compound 2 µM)	relative viability ([2]; first compound 6.325 µM)	relative viability ([3]; first compound 0.08 µM)	relative viability ([3]; first compound 0.253 µM)	relative viability ([3]; first compound 0.8 µM)	relative viability ([3]; first compound 2.53 µM)	relative viability ([3]; first compound 8 µM)	relative viability ([4]; first compound 0.08 µM)	relative viability ([4]; first compound 0.253 µM)	relative viability ([4]; first compound 0.8 µM)	relative viability ([4]; first compound 2.53 µM)	relative viability ([4]; first compound 8 µM)
NCI-H2228	0.368	0.691	0.266	0.387	0.387	0.271	0.298	0.224	0.141	0.342	0.579	0.457	0.484	0.494	0.482	0.302	0.798	0.555	0.904
NCI-H2347		0.75	0.559	0.393	0.421	0.399	0.447	0.555	0.408	0.276	0.271	0.222	0.265	0.238	0.386	0.516	0.522	0.399	0.353
NCI-H2405	0.31		0.559	0.381	0.386	0.425	0.444	0.421	0.371	0.459	0.559	0.531	0.365	0.395	0.762	0.9	1.03	0.644	0.501
NCI-H3122	0.644	0.572	0.642	0.407	0.636	0.403	0.363	0.401	0.331	0.211	0.23	0.184	0.181	0.161	1.01	1.1	0.829	0.84	0.796
PC-3 [JPC-3]	0.601	0.743	0.739	0.652	0.681	0.484	0.499	0.488	0.521	0.556	0.694	0.65	0.564	0.55	0.766	0.797	0.84	0.457	0.571
PC-14	0.575	0.632	0.591	0.376	0.771	0.584	0.703	0.527	0.265	0.704	0.747	0.794	0.455	0.622	0.667	0.716	0.712	0.487	0.769
RERF-LC-KJ	0.492	0.488	0.502	0.535	0.7	0.442	0.433	0.397	0.418	0.767	0.764	0.74	0.682	0.584	0.648	0.616	0.557	0.648	0.514
SK-LU-1		0.535	0.622	0.461	0.448	0.537	0.517	0.616	0.462		0.418	0.495	0.399	0.453		0.767	0.812	0.591	0.517
SK-MES-1	0.285	0.34	0.33	0.202	0.35	0.656	0.626	0.696	0.541	0.394	0.454	0.414	0.294	0.291	0.842	1.05	1.02	0.594	0.684
SW 1573	0.415	0.459	0.445	0.304	0.447	0.373	0.424	0.369	0.163	0.466	0.508	0.526	0.336	0.307	0.766	0.681	0.654	0.58	0.48
UMC-11	0.757	0.817	0.841	0.503	1.04	0.322	0.346	0.352	0.243	0.681	0.659	0.705	0.571	0.9	0.326	0.347	0.384	0.341	0.331
